Assay results: patent US20070027175A1, “Antineoplastic activities of ellipticine and its derivatives” (priority 2005, published 2007)

Experiments:
Type in all cases: cell-based, human
RPMI 8226 cells = assay: Drug resistance and cytotoxicity MTT assay, RPMI 8226; conditions: Homo sapiens, 96 hours
Method: (§1) FIGS. 13A-13B show dose response of RPMI 8226 and 8226/Dox1V myeloma cells to EPED3 (FIG. 13A) or Dox (FIG. 13B). Cells were incubated for 96 hours with drug concentrations as indicated and analyzed by MTT assays; linear regression analysis was used to determine the IC50 for each drug (EPED3, FIG. 13A; Dox, FIG. 13B) and each cell line (RPMI8226, squares; 8226/Dox1V, circles). Data are presented as the mean of four independent experiments.
(§2) The 8226/Dox1V and its parental line, RPMI 8226, cells were plated in 96-well plates at 10,000 cells/well and incubated with serial dilutions of EPED3 or Dox, as previously described (Landowski et al., 1999). After 96 hours incubation at 37° C., MTT was added to each well at a final concentration of 20 μg/ml and incubated an additional 4 hours. Plates were centrifuged and the media replaced with 0.1 ml DMSO to solublize the formazan complex. Optical density was measured at 540 nm using a Bio-Tek microplate spectrophotometer. IC50 values were calculated by linear regression analysis (Origins® Software Technologies, Inc.) of the log-linear plot for percent survival versus log drug concentration.
In drug resistance studies, the efficacy of EPED3 with 8226/Dox1V cells and the parental line, RPMI 8226 cells was investigated. Both cell lines were treated with either EPED3 or Dox, and the MTT assays were used to assess cell growth. […]

[1] = system: 12 myeloma cell lines (Ark, BW288, CAG, Delta47, DF15, JJN3, kms11, L363, opm2, RPMI8226, U266 and XG1); assay: Comparative study with existing anti-myeloma drugs (CellTiter-Glo); conditions: 0.2 μM; in 5 days
Source text: The results obtained from these controls are pooled together in the figure (●). The dose of each compound was set […].
Comparative study of NSC 338258 with existing anti-myeloma drugs Myeloma cell lines were exposed to NSC 338258 and existing anti myeloma drugs, Adriamycin® (Doxorubicin Hydrochloride) and Etoposide (VP-16-213) in ninety six well culture plates. The concentration of each compound was set […]. […] The cell growth was near zero in the following days (day 4 onwards; FIG. 6). It was also observed that 12 myeloma cell lines (Ark, BW288, CAG, Delta47, DF15, JJN3, kms11, L363, opm2, RPMI8226, U266 and XG1) responded to the same dosage (0.2 μM) of NSC 338258, VP-16-213 and Adriamycin in 5 days.

8226/Dox1V cells = assay: Drug resistance and cytotoxicity MTT assay, 8226/Dox1V
Method: as §1
The 8226/Dox1V cell line was established by chronic exposure to Dox in presence of P-glycoprotein inhibitor, verapamil and was characterized by reduced expression and activity of topo II (Futscher et al., 1993).
as §2
In drug resistance studies, the efficacy of EPED3 with 8226/Dox1V cells and the parental line, RPMI 8226 cells was investigated. Both cell lines were treated with either EPED3 or Dox, and the MTT assays were used to assess cell growth. Linear regression analysis of 96-hour dose-response curves was used to compare cytotoxicity of EPED3 in 8226/Dox1V and RPMI 8226 cell lines.

With `COc1cccc2c1C(=O)c1c(O)c3c(c(O)c1C2=O)C[C@@](O)(C(=O)CO)C[C@@H]3O[C@H]1C[C@H](N)[C@H](O)[C@H](C)O1` [Dox, Doxorubicin, reference compound] the IC50 (RPMI 8226 cells) was 40 nM, the “response of 12 myeloma cell lines” value [1] was “responded” and the IC50 (8226/Dox1V cells; Homo sapiens, 8226/Dox1V, 96 hours) was 294 nM. For the same molecule, the “resistance of 8226/Dox1V versus parental RPMI 8226” value (8226/Dox1V cells; ratio of IC50, 96 hours) was 7.3 fold.
